From ChEMBL document CHEMBL1121764, “Synthesis of some novel amodiaquine analogues as potential antimalarial and antifilarial compounds” (J Med Chem, 1981) come the findings set out here.

The test system of data set [1] is breinlia booliati. As to the kind of experiment: Time taken for In vitro anti-filarial activity to immobilize breinlia booliati (adult worms). It counts as functional.
Data set [2] is described as follows: Ratio of activity of quinine versus compound against Plasmodium berghei in mice. It counts as functional.
The species named for data set [3] is Mus musculus. As to the kind of experiment: Lethal dose that killed mice in 48 hr. It counts as toxicity, organism-based. The conditions noted are these: in vivo.
The species entered for data set [4] is Mus musculus. As to the kind of experiment: Minimum effective dose which on 5th day reduced the mean infection level to one-fiftieth of the control. It counts as functional.
For data set [5], the system named is breinlia booliati. The experiment in a line: Time taken for In vitro anti-filarial activity to immobilize breinlia booliati (Microfilaria). In kind it is functional.
The species named for data set [6] is Mus musculus. As to the kind of experiment: Minimum effective dose which on 5th day reduced the mean infection level to one-fiftieth of the control; No activity observed at a dose range of 0.05-2.0 mg (HCl) per 20 g.

As to `CCN(CC)C(=O)N1CCN(Cc2cc(Nc3ccnc4cc(Cl)ccc34)ccc2O)CC1`, the TIME stood at 3 h in the data set with breinlia booliati [1] and 6 h with breinlia booliati [5]. Besides, the Ratio in data set [2] came out at 2.8. The same compound returned an LD app in the data set listed under Mus musculus [3] of 0.37 mM/kg. The MED in the data set filed under Mus musculus [4] was 0.43 (mg of base) 20g-1.

`CN1CCN(C(=O)NCc2cc(Nc3ccnc4cc(Cl)ccc34)ccc2O)CC1`: the TIME in the data set on breinlia booliati [1] amounted to 5 h; in the data set with breinlia booliati [5], 7 h. The Ratio in data set [2] was determined as 28.4. This compound gave an LD app in the data set filed under Mus musculus [3] of 0.66 mM/kg. Also, the MED in the data set filed under Mus musculus [4] was 0.043 (mg of base) 20g-1.

On to `CCN(CC)C(=O)N1CCN(C)CC1` [DIETHYLCARBAMAZINE], for which the TIME with breinlia booliati [1] was determined as 2 h; in the data set with breinlia booliati [5] it was 4 h. The LD app in the data set listed under Mus musculus [3] is 1.34 mM/kg.

For the compound `CCN(CC)C(=O)NCc1cc(Nc2ccnc3cc(Cl)ccc23)ccc1O`, the TIME in the data set on breinlia booliati [1] and in the data set with breinlia booliati [5] was 8 h in each case. The MED result in the data set listed under Mus musculus [6] is “No activity”.

With `CCN(Cc1cc(Nc2ccnc3cc(Cl)ccc23)ccc1O)C(=O)N1CCN(C)CC1`, the TIME with breinlia booliati [1] and in the data set with breinlia booliati [5] was 3 h in each case. Further, the Ratio in data set [2] was determined as 5.8. Further, the LD app in the data set listed under Mus musculus [3] worked out at 0.76 mM/kg. The MED in the data set listed under Mus musculus [4] is listed as 0.21 (mg of base) 20g-1.

With `COc1ccc(Nc2ccnc3cc(Cl)ccc23)cc1CNC(=O)N1CCN(C)CC1`, the TIME amounted to 5 h with breinlia booliati [1] and 7 h with breinlia booliati [5]. For the same compound, in data set [2], the Ratio worked out at 2.8. In the data set filed under Mus musculus [3], the LD app came to 0.68 mM/kg. In addition, the MED in the data set filed under Mus musculus [4] is 0.43 (mg of base) 20g-1.

On to `CCN(CC)C(=O)N(CC)Cc1cc(Nc2ccnc3cc(Cl)ccc23)ccc1O`, for which the TIME in the data set on breinlia booliati [1] and in the data set on breinlia booliati [5] was 8 h each time. Also, the MED entry in the data set filed under Mus musculus [6] is “No activity”.

Take `CCN(CC)C(=O)N(CC)Cc1cc(Nc2ccnc3cc(Cl)ccc23)ccc1OC`: the TIME with breinlia booliati [1] and in the data set with breinlia booliati [5] was 8 h throughout. Besides, the MED result in the data set listed under Mus musculus [6] is “No activity”.

For the compound `CCN(CC)Cc1cc(Nc2ccnc3cc(Cl)ccc23)ccc1O.Cl`, the TIME in the data set on breinlia booliati [1] and in the data set with breinlia booliati [5] was 3 h in each case. The Ratio in data set [2] came out at 15.8. In the data set listed under Mus musculus [3], this compound returned an LD app of 0.32 mM/kg. In addition, the MED in the data set listed under Mus musculus [4] was 0.077 (mg of base) 20g-1.

As for `CCN(Cc1cc(Nc2ccnc3cc(Cl)ccc23)ccc1OC)C(=O)N1CCN(C)CC1`, the TIME in the data set with breinlia booliati [1] and in the data set on breinlia booliati [5] was 3 h in each case. Besides, the Ratio in data set [2] turned out to be 2.8. In the data set listed under Mus musculus [3], this compound showed an LD app of 0.63 mM/kg. In the data set filed under Mus musculus [4], the MED is recorded as 0.43 (mg of base) 20g-1.

As to `CCN(CC)C(=O)N1CCN(Cc2cc(Nc3ccnc4cc(Cl)ccc34)ccc2OC)CC1`, the TIME with breinlia booliati [1] worked out at 3 h; with breinlia booliati [5] it was 6 h. Further, the Ratio in data set [2] was determined as 2.8. In the data set filed under Mus musculus [3], this compound had an LD app of 0.41 mM/kg. Besides, the MED in the data set listed under Mus musculus [4] is listed as 0.43 (mg of base) 20g-1.

With `CCN(CC)C(=O)NCc1cc(Nc2ccnc3cc(Cl)ccc23)ccc1OC`, the TIME with breinlia booliati [1] and with breinlia booliati [5] was 8 h in each case. Also, the MED entry in the data set filed under Mus musculus [6] is “No activity”.
